From ChEMBL document CHEMBL1146942, “Abacavir prodrugs: microwave-assisted synthesis and their evaluation of anti-HIV activities” (Bioorg Med Chem Lett, 2006)

Legend:
[1] = system: Human immunodeficiency virus 1; assay: Antiviral activity against HIV1 replication in CEM cell line; format: functional, organism-based; conditions: Human immunodeficiency virus 1, CCRF-CEM
CCRF-CEM [2] = assay: Cytotoxicity against CEM cell line; format: functional; conditions: Homo sapiens
CCRF-CEM [3] = assay: Selectivity index (CC50/EC50) for inhibition of HIV1 replication in CEM cell line; format: functional

Row | SMILES | EC50 [1] | CC50 (CCRF-CEM [2]) | Selectivity index (CCRF-CEM [3])
1 | Nc1nc(NC2CC2)c2ncn([C@H]3C=C[C@@H](CO)C3)c2n1 [ABACAVIR] | 1600 nM | 83 µM | –
2 | O=C1Nc2ccc(F)cc2/C1=N\c1nc(NC2CC2)c2ncn(C3C=CC(CO)C3)c2n1 (stereo not given) | 6200 nM | 56 µM | –
3 | OCC1C=CC(n2cnc3c(NC4CC4)nc(/N=C(\c4ccccc4)c4ccc(Br)cc4)nc32)C1 (stereo not given) | 3700 nM | 45 µM | –
4 | COc1ccc(/C=N/c2nc(NC3CC3)c3ncn(C4C=CC(CO)C4)c3n2)c(O)c1 (stereo not given) | 1200 nM | 100 µM | –
5 | COc1ccc(/C=N/c2nc(NC3CC3)c3ncn(C4C=CC(CO)C4)c3n2)cc1 (stereo not given) | 360 nM | > 100 µM | –
6 | O=[N+]([O-])c1ccccc1/C=N/c1nc(NC2CC2)c2ncn(C3C=CC(CO)C3)c2n1 (stereo not given) | 480 nM | 13 µM | –
7 | O=[N+]([O-])c1ccc(/C=N/c2nc(NC3CC3)c3ncn(C4C=CC(CO)C4)c3n2)cc1 (stereo not given) | 520 nM | 12 µM | –

Continued by falling EC50 [1], values first:

Row | EC50 [1] | SMILES | CC50 (CCRF-CEM [2]) | Selectivity index (CCRF-CEM [3])
8 | 5000 nM | O=C1Nc2ccccc2/C1=N\c1nc(NC2CC2)c2ncn(C3C=CC(CO)C3)c2n1 (stereo not given) | 48 µM | –
9 | 2100 nM | Cc1ccc2c(c1)/C(=N\c1nc(NC3CC3)c3ncn(C4C=CC(CO)C4)c3n1)C(=O)N2 (stereo not given) | 78 µM | –
10 | 1900 nM | C/C(=N\c1nc(NC2CC2)c2ncn(C3C=CC(CO)C3)c2n1)c1ccc(O)cc1 (stereo not given) | 62 µM | –
11 | 60 nM | CN(C)c1ccc(/C=N/c2nc(NC3CC3)c3ncn(C4C=CC(CO)C4)c3n2)cc1 (stereo not given) | > 100 µM | –
12 | 50 nM | Cc1ccc(/C=N/c2nc(NC3CC3)c3ncn(C4C=CC(CO)C4)c3n2)cc1 (stereo not given) | > 100 µM | >2000
